# Measurements: article PMC7037732, “Synthesis of Combretastatin A-4 and 3′-Aminocombretastatin A-4 derivatives with Aminoacid Containing Pendants and Study of their Interaction with Tubulin and as Downregulators of the VEGF, hTERT and c-Myc Gene Expression” (Molecules, 2020)
# Key:
# [1] = test system: VEGF gene; assay: VEGF gene expression by RT-qPCR in HT-29 cells; format: cell-based, human; conditions: Homo sapiens, HT-29, 48 h, control 100; for mrna remaining at 0.015 µM: 15 nM
# Procedure: (§1) The effect on the expression of VEGF, hTERT and c-Myc genes has been studied for CA-4 and its derivatives that show selectivity indexes higher than 0.9 on the HT-29 cell line. The studied derivatives, together with the concentrations to which they have been tested, are CA-4 (15 μM); 4.1 (Gly, 5 μM); 4.5 (L-Pro, 25 μM); 4.9 (L-Met, 25 μM); 6.2 (D-Leu, 25 μM); 6.3 (D-Phe, 25 μM); 6.4 (D-Pro, 25 μM) and 6.5 (D-Ser, 10 μM). The expression of the genes was determined by RT-qPCR methodology, as described in the Materials and Methods section.
# (§2) As regards AmCA-4 derivatives, the effect on the expression of the VEGF, hTERT and c-Myc genes has been studied on those that show IC50 in the low nanomolar range on the HT-29 cell line and/or on compounds whose selectivity indexes with respect to this cell line are higher than 1. The studied compounds, together with the concentrations to which they have been tested, are: CA-4 (15 μM), AmCA-4 (15 nM), 7.1 (7 nM), 7.2 (1.5 nM), 7.3 (4 nM), 7.4 (15 nM), 7.5 (2 nM), 7.7 (7 nM), 7.8 (15 nM), 7.9 (30 nM), 8.1 (7 nM), 8.2 (3 nM), 8.3 (10 nM), 8.4 (1.5 nM), 8.5 (4 nM), 8.7 (7 nM), 8.8 (3 nM) and 8.9 (4 nM).
# (§3) HT-29 cells at 70–80% confluence were collected, and 1.5 × 10^5 cells were placed in a six-well plate in 1.5 mL of the medium. After 24 h, cells were incubated with the corresponding compounds for 48 h. Cells were collected, and the total cellular RNA from the HT-29 cells was isolated using an Ambion RNA Extraction Kit, according to the manufacturer’s instructions. The cDNA was synthesized by MMLV-RT with […] of extracted RNA and oligo(dT)15, according to the manufacturer’s instructions. Genes were amplified by a thermal cycler and StepOnePlus™ TaqMan® probes. TaqMan® Gene Expression Master Mix Fast, containing the appropriate buffer for the amplification conditions, dNTPs, thermostable DNA polymerase enzyme and a passive reference probe, was used. To amplify each of the genes, the predesigned primers sold by Life Technologies TaqMan® Gene Expression Assays Hs99999903-m1 (β-actin), Hs00900055-m1 (VEGF), Hs00972646-m1 (hTERT) and Hs00153408-m1 (c-Myc) were used.
# [2] = test system: c-Myc gene; assay: c-Myc gene expression by RT-qPCR in HT-29 cells; format: cell-based, human; conditions: Homo sapiens, HT-29, 48 h, control 100; for mrna remaining at 0.015 µM: 15 nM
# Procedure: as §1, §2, §3
# [3] = test system: HEK-293 (human embryonic kidney cells); assay: Inhibition of cell proliferation (MTT), nontumor HEK-293; format: cell-based; conditions: Table 2, 48 h of treatment (footnote), average ±SD of three experiments
# Description: (§4) The ability of the synthetic compounds to inhibit cell proliferation was established by means of their IC50 values towards the tumor cell lines HT-29 (human colon adenocarcinoma), MCF-7 (breast adenocarcinoma) and A-549 (human pulmonary adenocarcinoma), as well as towards the nontumor cell line HEK-293 (human embryonic kidney cells). Results for compounds derived from CA-4 are presented in Table 1, along with the calculated selectivity indexes SIA (for HT-29 cell line), SIB (for MCF-7 cell line) and SIc (for A-549 cell line), obtained by dividing the IC50 values of the nontumor cell line (HEK-293) by those of the corresponding tumor cell line. The higher the SI index, the higher the therapeutic safety margin.
# (§5) Cell culture media were purchased from Gibco (Grand Island, NY, USA). Fetal bovine serum (FBS) was a product of Harlan-Seralab (Belton, U.K.). Supplements and other chemicals not listed in this section were obtained from Sigma Chemical Co. (St. Louis, MO, USA). Plastics for cell culture were supplied by Thermo Fischer Scientific Inc., Madrid, Spain. All tested compounds were dissolved in DMSO at a concentration of 10 μg/mL and stored at −20 °C until use. HT-29, MCF-7, A-549 and HEK-293 cell lines were maintained in a Dulbecco’s modified Eagle’s medium (DMEM) containing glucose (1 g/L), glutamine (2 mM), penicillin (50 IU/mL), streptomycin (50 μg/mL) and amphotericin B (1.25 μg/mL), supplemented with 10% FBS. Cells from human non-small lung carcinoma (clone A549; ATCC n°: CCL2, MD, USA) were routinely grown at 37 °C in a humidified atmosphere of 5% CO2. Cells were maintained in a standard medium composed of RPMI 1640 (Lonza, Group Ltd., Basel, Switzerland), supplemented with 10% fetal bovine serum (FBS), 2 mM L-glutamine and 1% penicillin and streptomycin (Invitrogen). Cells were free from mycoplasma as determined by MycoAlert tests (Lonza, Group Ltd., Basel, Switzerland).
# (§6) A total of 5 × 10^3 HT-29, MCF-7 or HEK-293 cells in a total volume of 100 μL of their respective growth media were incubated with serial dilutions of the tested compounds. The 3-(4,5-dimethylthiazol-2-yl)-2,5-diphenyltetrazolium bromide (MTT; Sigma Chemical Co.) dye reduction assay in a 96-well microplate was used, as previously described. […] The resulting formazan was dissolved in 150 μL of 0.04 N HCl/2-propanol and read at 550 nm. All determinations were carried out in triplicate.
# [4] = test system: HT-29 (human colon adenocarcinoma); assay: Inhibition of cell proliferation (MTT), HT-29; format: cell-based; conditions: Homo sapiens, HT-29, 48 h, Table 2; 48 h of treatment (footnote); average ±SD of three experiments
# Description: as §4, §5, §6
# [5] = test system: hTERT gene; assay: hTERT gene expression by RT-qPCR in HT-29 cells; format: cell-based, human; conditions: Homo sapiens, HT-29, 48 h, control 100; for mrna remaining at 0.015 µM: 15 nM
# Procedure: as §1, §2, §3
# [6] = test system: A-549 (human pulmonary adenocarcinoma); assay: Inhibition of cell proliferation (MTT), A-549; format: cell-based; conditions: Homo sapiens, A549, 48 h, Table 2; 48 h of treatment (footnote); average ±SD of three experiments
# Description: as §4
# as §5, with “Switzerland). […]” for “Switzerland).”
# [7] = test system: purified tubulin; assay: Critical concentration (CrC) for the assembly of purified tubulin in GAB; format: biochemical; conditions: compound 27.5 μM, tubulin 25 μM, glycerol (GAB) and GTP assembly buffer; control 7.9 ± 1.2
# Procedure: The effect on the self-assembly of tubulin was determined by measuring the critical concentration (CrC).
# [8] = test system: MCF-7 (breast adenocarcinoma); assay: Inhibition of cell proliferation (MTT), MCF-7; format: cell-based, human; conditions: Table 2, 48 h of treatment (footnote), average ±SD of three experiments
# Description: as §4, §5, §6
# [9] = test system: tubulin; assay: In vitro tubulin polymerization by turbidimetry (It50); format: biochemical; conditions: turbidimetry at 350 nm, 37 °C; for It50 (time required to reach 50% of the polymerization): control 16.6 ± 1.0
# Procedure: Figure 3 also includes polymerization curves in the presence of CA-4, AmCA-4 and paclitaxel. This test was also performed using paclitaxel, a microtubule stabilizing agent, as a control for the complete formation of microtubules (see Figure 3).
# [10] = test system: A-549 cells; assay: Cell cycle distribution by flow cytometry; format: cell-based, human; conditions: A-549, 24 h, 0.5 µM
# Procedure: The effects of some CA-4 derivatives on the cell cycle were evaluated in A-549 cells.
# The effects of some AmCA-4 derivatives on the cell cycle were also evaluated in A-549 cells.
# The supernatant and trypsinated cells were harvested and then centrifuged (1200 rpm, 5 min, 4 °C). The cell pellet was resuspended in 1 mL of cold 70% ethanol for 30 min at −20 °C. Cells were centrifuged (2000 rpm, 5 min, 4 °C) to remove ethanol, and then the cell pellet was resuspended in the staining mix containing 50 µg/mL propidium iodide (Molecular Probes, France) and 100 µg/mL RNAse A (Sigma, France) in PBS for 20 min at room temperature in darkness. Samples were analyzed on a Becton Dickinson FACScan flow cytometer using the CellQuest software, which was also used to determine the percentage of cells in the G2/M phases of the cell cycle. PI was excited at 488 nm, and fluorescence analyzed at 620 nm on channel Fl-2.
SMILES,"IC50 ([3]; Homo sapiens, HEK293, 48 h) [nM]",IC50 [4] [nM],IC50 [6] [nM],CrC (critical concentration) [7] [µM],"IC50 ([8]; Homo sapiens, MCF7, 48 h) [nM]",It50 (time required to reach 50% of the polymerization) [9] [min],also measured
COc1ccc(/C=C\c2cc(OC)c(OC)c(OC)c2)cc1NC(=O)[C@@H](NC(=O)OCC1c2ccccc2-c2ccccc21)C(C)C [Compound 7.3],60 ± 20,130 ± 40,870 ± 60,6.9 ± 0.3,100 ± 50,–,mrna remaining at 0.004 µM ([1]; 4 nM): 23%; mrna remaining at 0.004 µM ([2]; 4 nM): 63%; mrna remaining at 0.004 µM ([5]; 4 nM): > 100%
COc1ccc(/C=C\c2cc(OC)c(OC)c(OC)c2)cc1NC(=O)[C@H](CC(C)C)NC(=O)OCC1c2ccccc2-c2ccccc21 [Compound 7.4],14 ± 3,23 ± 10,490 ± 13,9.9 ± 0.8,9 ± 2,–,mrna remaining at 0.015 µM [1]: 58%; mrna remaining at 0.015 µM [2]: 94%; mrna remaining at 0.015 µM [5]: 96%
COc1ccc(/C=C\c2cc(OC)c(OC)c(OC)c2)cc1NC(=O)[C@@H](NC(=O)OCC1c2ccccc2-c2ccccc21)C(C)O (some centres unmarked) [Compound 7.7],13 ± 2,9 ± 3,422 ± 8,12.0 ± 0.3,25 ± 12,19.2 ± 0.3,mrna remaining at 0.007 µM ([1]; 7 nM): 37%; mrna remaining at 0.007 µM ([2]; 7 nM): 56%; mrna remaining at 0.007 µM ([5]; 7 nM): < 70%
COc1ccc(/C=C\c2cc(OC)c(OC)c(OC)c2)cc1NC(=O)[C@H](Cc1ccc(O)cc1)NC(=O)OCC1c2ccccc2-c2ccccc21 [Compound 7.8],16 ± 2,18 ± 5,8900 ± 1200,10.1 ± 1.1,12 ± 2,–,mrna remaining at 0.015 µM [1]: 51%; mrna remaining at 0.015 µM [2]: > 100%; mrna remaining at 0.015 µM [5]: 76%
COc1ccc(/C=C\c2cc(OC)c(OC)c(OC)c2)cc1NC(=O)[C@@H](N)CC(C)C [Compound 8.4],–,–,167 ± 23,8.3 ± 0.3,–,–,mrna remaining at 0.0015 µM ([1]; 1.5 nM): 67%; mrna remaining at 0.0015 µM ([2]; 1.5 nM): 48%; mrna remaining at 0.0015 µM ([5]; 1.5 nM): 73%; G0/G1 [10]: 35 ± 1%; G2/M [10]: 48 ± 1%; S [10]: 17 ± 2%
COc1ccc(/C=C\c2cc(OC)c(OC)c(OC)c2)cc1NC(=O)[C@@H](N)Cc1ccc(O)cc1 [Compound 8.8],< 5,–,206 ± 20,7.7 ± 0.8,< 5,–,mrna remaining at 0.003 µM ([1]; 3 nM): 72%; mrna remaining at 0.003 µM ([2]; 3 nM): 42%; IC50 [3]: 2.7 ± 1.4 nM; mrna remaining at 0.003 µM ([5]; 3 nM): 46%; IC50 [8]: 4.9 ± 0.2 nM; G0/G1 [10]: 30 ± 2%; G2/M [10]: 52 ± 3%; S [10]: 18 ± 1%
COc1ccc(/C=C\c2cc(OC)c(OC)c(OC)c2)cc1NC(=O)[C@H]1CCCN1C(=O)OCC1c2ccccc2-c2ccccc21 [Compound 9.4],3100 ± 1100,5300 ± 300,12800 ± 800,11.4 ± 0.2,5300 ± 1100,16.5 ± 0.3,–
"CC(=O)O[C@H]1C(=O)[C@@]2(C)[C@H]([C@H](OC(=O)c3ccccc3)[C@]3(O)C[C@H](OC(=O)[C@H](O)[C@@H](NC(=O)c4ccccc4)c4ccccc4)C(C)=C1C3(C)C)[C@]1(OC(C)=O)CO[C@@H]1C[C@@H]2O [Paclitaxel, paclitaxel, reference compound]",–,–,–,–,–,3.2 ± 0.4,time to reach the plateau phase of polymerization [9]: 30 min; Effect on in vitro tubulin polymerization ([9]; result in words): promotes tubulin polymerization
